{"source": "patent US20260263429A1", "about": "“INHIBITORS OF CA 2+/CALMODULIN-DEPENDENT PROTEIN KINASE II (CAMKII) THAT DO NOT INHIBIT LONG-TERM POTENTIATION (LTP) INDUCTION AND THERAPEUTIC USES THEREOF” (The Regents of the University of Colorado, A Body Corporate, priority 2023, published 2026)", "key": {"[1]": {"system": "paCaMKII F89G movement to synapses and spine growth", "experiment": "Photoactivation of paCaMKII F89G in hippocampal neurons (structural LTP)", "assay_type": "cell-based", "settings": "NM-PP1 10 μM", "excerpt": "In this Example, two sets of pharmacogenetic tools were used in combination with the photoactivable paCaMKII to test whether structural CaMKII functions are not only the necessary but also the sufficient CaMKII functions in LTP. Specifically, in one exemplary method, hippocampal neurons were examined for sLTP (e.g., the LTP-associated growth of dendritic spines) in response to direct photoactivation of paCaMKII without any other stimulation that could trigger additional signaling pathways. […] In both cases, suppressing enzymatic CaMKII activity while allowing or enhancing GluN2B binding enabled induction of structural LTP.\npaCaMKII stimulation in hippocampal neurons. […] Neurons were then imaged 15 minutes after stimulation and assessed for CaMKII synaptic enrichment and dendritic spine growth.\nImage analysis of hippocampal neurons. […] 2D maximum intensity projection images were then generated and analyzed using a custom-build program in ImageJ. The program utilizes combinatorial thresholding to mask regions of the cell that contain high intensity PSD-95 puncta (the post-synaptic side of excitatory synapses in dendritic spines) and regions of the dendritic shaft that contain no fluorescence intensity of PSD-95. […] Spine growth was assessed by measuring the changes in mCherry cell fill fluorescence intensity within dendritic spine ROIs (F/F0)."}, "[2]": {"system": "LTP in CaMKIIα knockout slices", "experiment": "LTP induction in slices of CaMKIIα knockout mice injected with AAV-mScarlet (mock) or AAV-mScarlet-CaMKII F89G", "assay_type": "cell-based, mouse", "protocol": "Specifically, in one exemplary method, pharmacogenetic rescue of LTP with NM-PP1 was tested in hippocampal slices expressing the CaMKII F89G mutant. For this purpose, mScarlet-labeled CaMKII F89G mutant were re-expressed in the hippocampal CA1 region of CaMKIIα knockout mice. This was done by stereotactic injection of a packaged adeno-associated virus (AAV) construct in which the expression of either mScarlet alone or the mScarlet-labeled mutant CaMKII is controlled by the CaMKIIα promoter (FIG. 5A). After 5 weeks of expression, acute slices were prepared and evaluated for proper localization of expression by imaging of mScarlet fluorescence (FIG. 5A and FIG. 11A). […] As expected, NM-PP1 had no effect on the residual LTP in these control slices (FIGS. 5B-5C and FIG. 11B). By contrast, in slices expressing the CaMKII F89G mutant, LTP was completely abolished (FIGS. 5D-5E), consistent with residual LTP being further suppressed by the dominant negative effect (on the remaining minor CaMKIIβ isoform in the CaMKIIα knockout) that is exerted by a CaMKII mutant with impaired ATP-binding and thereby is deficient in both activity and GluN2B binding. […] Thus, two independent lines of pharmacogenetic evidence topple current dogma by directly supporting the conclusion that LTP induction is linked to structural rather than enzymatic functions of CaMKII.\nAAV Production. […]"}}, "data": [{"smiles": "CC(C)(C)n1nc(Cc2cccc3ccccc23)c2c(N)ncnc21", "note": "[NM-PP1]", "values": [{"measurement": "CaMKII movement after photoactivation of paCaMKII F89G", "setting": "[1]", "result": "enabled similar movement"}, {"measurement": "residual LTP in CaMKIIα knockout slices expressing mScarlet control", "setting": "[2]; NM-PP1", "result": "no effect"}, {"measurement": "LTP induction in CaMKIIα knockout slices expressing CaMKII F89G", "setting": "[2]; NM-PP1 10 μM", "result": "LTP induction was enabled"}]}]}
